In patent US12202832B2, “Heterocyclic compounds having a calcium-sensing receptor antagonistic activity” (TAKEDA PHARMACEUTICAL COMPANY LIMITED, priority 2017, dated 2025):

Assays:
[1] = system: monocrotaline (MCT)-induced pulmonary hypertension rats; conditions: cited from earlier work
[2] = system: hypoxia-induced pulmonary hypertension (HPH) mice; conditions: cited from earlier work
CYP3A = experiment: CYP induction (CYP3A activity in cryopreserved hepatocytes, P450-Glo CYP3A4 assay); assay type: in vitro ADME; conditions: % of positive control; inducibility by 10 μmol/L rifampicin defined as 100%; hepatocytes treated 3 days
Procedure: Cryopreserved hepatocytes were thawed in a culture medium (In VitroGRO™ CP Medium, Celsis In Vitro Technologies, U.S.A.), and the resultant was added to BioCoat™ Matrigel®™ Matrix Thin-Layer 96 well (Becton, Dickinson and Company, U.S.A.) at a concentration of 40,000 cells/well. After culturing for 24 hours, the culture medium was removed, and replaced with an incubation medium (In VitroGRO™, HI Medium with Torpedo Antibiotic Mix, Celsis In Vitro Technologies, U.S.A.). Cells were cultured for an additional 3 days. The medium was removed on day 4, and the remained cells were treated in the induction medium containing a test compound for 3 days in the presence or absence of 10 μmol/L rifampicin. The induction medium was replaced every day. The test compound addition wells in the presence of 10 μmol/L rifampicin were used to evaluate the inhibitory effect of the test compound on the inducibility of the CYP3A activity by rifampicin. The CYP3A activity was evaluated by measuring luciferin generating amount after the addition of 2 μmol/L luciferin-IPA using IPA P450-Glo™ CYP3A4 assay systems (Promega Corporation, U.S.A.). All cultures were carried out under a humidified environment at 37° C., 5% CO2. The inducibility by rifampicin was defines as 100%, and the inducibility of the test compound (% of positive control) was calculated from the following equation: [(luciferin fluorescence intensity in the absence of rifampicin and the presence of test compound)−(luciferin fluorescence intensity in the absence of rifampicin and test compound)/(luciferin fluorescence intensity in the presence of rifampicin and the absence of test compound)−(Luciferin fluorescence intensity in the absence of rifampicin and test compound)]×100.

CYP3A4 = target: T1, CYP3A4 (Homo sapiens, UniProt P08684); experiment: CYP3A4 TDI in human liver microsomes (testosterone 6β-hydroxylation); assay type: in vitro ADME; conditions: 30 μM test compound, 60 min vs 0 min preincubation, solvent acetonitrile
T1 construct: Human liver microsomes purchased from XenoTech, LLC (Lenexa, KS) was used; tissue XenoTech, LLC (Lenexa, KS); host or cells: human liver microsomes
T1 sequence (P08684 whole entry): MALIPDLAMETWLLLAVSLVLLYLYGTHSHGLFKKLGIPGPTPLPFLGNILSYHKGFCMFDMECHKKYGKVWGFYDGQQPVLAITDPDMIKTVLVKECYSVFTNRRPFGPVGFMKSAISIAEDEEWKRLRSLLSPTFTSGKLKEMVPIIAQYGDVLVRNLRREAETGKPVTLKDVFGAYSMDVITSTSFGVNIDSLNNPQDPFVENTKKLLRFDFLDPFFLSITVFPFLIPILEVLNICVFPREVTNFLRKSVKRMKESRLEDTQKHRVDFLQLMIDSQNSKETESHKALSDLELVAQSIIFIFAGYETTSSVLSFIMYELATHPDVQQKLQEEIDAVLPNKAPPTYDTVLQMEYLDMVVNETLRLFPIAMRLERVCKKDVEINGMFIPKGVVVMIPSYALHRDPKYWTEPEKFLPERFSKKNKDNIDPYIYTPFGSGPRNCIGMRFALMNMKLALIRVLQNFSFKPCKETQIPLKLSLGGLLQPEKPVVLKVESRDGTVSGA
Procedure: Human liver microsomes purchased from XenoTech, LLC (Lenexa, KS) was used. Test compounds were dissolved in acetonitrile or DMSO/acetonitrile (1:4, v/v). To a human liver microsomes solution adjusted with phosphate buffer (pH 7.4), the test compound solution was added to obtain a human liver microsomes reaction solution having the test compound concentration of 30 μM. To the human liver microsome reaction solution, NADPH production system was added, and the mixture was preincubated at 37° C. for 0 minutes or 60 minutes. After the preincubation, probe substrate testosterone was added, and testosterone metabolite 6β-hydroxytestosterone was analyzed by LC/MS/MS to evaluate CYP3A4 enzymatic activity.
The enzyme activity (% of control) at each preincubation point was calculated from the following equation: % of control={(activity of test compound addition group)/(activity of test compound non-addition group)}×100.
The remaining activity (% remaining) after 60 minutes of preincubation was calculated from the following equation: Remaining activity (%)={activity after 60 minutes (% of control60 min)}/{activity after 0 minutes (% of control0 min)}×100.

human CaSR = target: T2, human CaSR (Homo sapiens, UniProt P41180); experiment: Human CaSR antagonist activity (NFAT-Luciferase reporter in CHO cells); assay type: cell-based; conditions: CHO, CaCl2 final 1.3 mM, 100% = reference antagonist at 10 μM, read-out: Inhibition rate (%) at 3.3 μM
T2 construct: expressed in transfected cells; host or cells: CHO cells
T2 sequence (P41180 20-1078): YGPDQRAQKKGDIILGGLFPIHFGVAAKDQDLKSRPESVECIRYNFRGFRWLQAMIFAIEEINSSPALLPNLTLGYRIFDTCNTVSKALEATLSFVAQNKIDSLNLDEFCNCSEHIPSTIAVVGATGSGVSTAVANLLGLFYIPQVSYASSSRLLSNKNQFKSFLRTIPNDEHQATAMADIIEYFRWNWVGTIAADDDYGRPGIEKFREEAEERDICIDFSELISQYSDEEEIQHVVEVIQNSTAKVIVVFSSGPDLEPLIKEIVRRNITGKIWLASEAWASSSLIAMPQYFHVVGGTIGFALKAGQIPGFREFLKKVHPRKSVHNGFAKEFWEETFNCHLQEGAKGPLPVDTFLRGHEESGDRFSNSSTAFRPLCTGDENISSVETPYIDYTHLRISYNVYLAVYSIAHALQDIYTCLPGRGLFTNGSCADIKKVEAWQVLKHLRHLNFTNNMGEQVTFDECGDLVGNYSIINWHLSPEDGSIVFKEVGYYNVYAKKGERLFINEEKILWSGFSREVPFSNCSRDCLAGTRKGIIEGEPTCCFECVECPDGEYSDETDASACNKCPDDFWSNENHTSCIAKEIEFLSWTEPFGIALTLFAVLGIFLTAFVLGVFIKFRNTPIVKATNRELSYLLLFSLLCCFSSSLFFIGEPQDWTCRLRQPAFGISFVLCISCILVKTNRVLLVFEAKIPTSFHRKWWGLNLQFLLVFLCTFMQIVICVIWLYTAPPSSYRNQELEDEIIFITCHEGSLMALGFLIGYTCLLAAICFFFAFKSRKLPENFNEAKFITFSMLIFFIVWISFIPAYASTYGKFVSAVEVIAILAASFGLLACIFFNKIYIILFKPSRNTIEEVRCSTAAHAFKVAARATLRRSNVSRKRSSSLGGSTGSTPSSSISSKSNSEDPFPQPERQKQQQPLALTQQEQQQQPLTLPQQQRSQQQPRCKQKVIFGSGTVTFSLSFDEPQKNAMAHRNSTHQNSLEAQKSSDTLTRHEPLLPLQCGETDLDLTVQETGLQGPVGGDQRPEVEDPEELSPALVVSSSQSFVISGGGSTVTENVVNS
Procedure: CaSR antagonist activity measurement was performed using Bright-Glo Luciferase assay system (Promega Corporation). CHO cells in which human CaSR and NFAT-Luciferase reporter gene were forcibly expressed were suspended in MEM alpha (Wako Pure Chemical Industries, Ltd.) containing 10% dialyzed serum (HyClone). The cells in suspension was seeded in 384-well white plate (Corning) at 10,000/20 μL/well, and cultured in an incubator of 37° C., 5% CO2 for one day. A diluent of Test compound was prepared with assay buffer (MEM alpha containing 10 mM HEPES (Life Technologies) and 10% dialysis serum). The diluent was added to the plate at 5 μL/well and allowed to stand at 37° C. for 10 minutes. Further, a diluent of 7.8 mM CaCl2 prepared with assay buffer (final concentration 1.3 mM) was added at 5 μl/well and allowed to stand in an incubator of 37° C., 5% CO2 for 2 hours. Bright-Glo reagents (Promega Corporation) were added at 10 μL/well, and the obtained mixture was stirred for 5 minutes, and then luminescence intensity was measured using Multi-label reader Envision (PerkinElmer, Inc.). The activity (%) of the test compound was calculated with the definitions in which the luminescence intensity when DMSO is added in place of the test compound is defined as 0% inhibition; and the luminescence intensity when (5R)—N-(1-ethyl-1-(4-ethylphenyl)propyl)-2,7,7-trimethyl-5-phenyl-4,5,6,7-tetrahydropyrazolo[1,5-a] Pyrimidine-3-carboxamide at final concentration of 10 μM is added is defined as 100% inhibition.

[3] = system: aortic banding (TAC) models; conditions: cited from earlier work
cardiac hypofunction = conditions: dosing after cardiac loading; cited from earlier work

CC(C)(Cc1ccc2ccccc2c1)NC[C@@H](O)COc1cccc(Cl)c1C#N [NPS-2143]
Effect on pulmonary hypertension pathology [1]: suppressed cardiac hypertrophy, elevated right ventricular systolic pressure, fibrosis of cardiac muscle tissue, pulmonary vascular remodeling or the like | Effect on pulmonary hypertension pathology [2]: suppressed cardiac hypertrophy, elevated right ventricular systolic pressure, fibrosis of cardiac muscle tissue, pulmonary vascular remodeling or the like

CCc1ccc(C(CC)(NC(=O)c2cnn3c2N[C@@H](c2ccccc2)CC3(C)C)C(=O)N[C@@H](C)C(N)=O)cc1 (single isomer, unassigned) [Example 4]
Inducibility (CYP3A): 20.8% | Remaining Activity (CYP3A4): 95.6% | inhibition at 3.3 µM (human CaSR): 102%

CCc1ccc(C(CC)(NC(=O)c2cnn3c2N[C@@H](c2ccccc2)CC3(C)C)C(=O)N[C@H](C(N)=O)C(C)C)cc1 (single isomer, unassigned) [Example 12]
Inducibility (CYP3A): 17.3% | Remaining Activity (CYP3A4): 74.3% | inhibition at 3.3 µM (human CaSR): 99%

C[C@@H](N[C@H]1CCCC[C@@H]1NC(=O)c1ccc(Cl)cc1)c1cccc2ccccc12 [Calhex231]
Effect on cardiac hypertrophy [3]: improves cardiac hypertrophy | Effect on cardiac hypofunction (cardiac hypofunction): fails to improve cardiac hypofunction

CCc1ccc(C(CC)(NC(=O)c2cnn3c2N[C@@H](c2ccccc2)CC3(C)C)C(=O)N[C@@H](CC)C(N)=O)cc1 (single isomer, unassigned) [Example 6]
Inducibility (CYP3A): 18.6% | Remaining Activity (CYP3A4): 80.2% | inhibition at 3.3 µM (human CaSR): 105%
